Laboratory results reported in the supplement of paper PMC10307832.

How the values were obtained:
Test in all cases: relative viability (nuclei count vs DMSO), 5 days (fraction); higher = more cells survive
IU1-47 = compound: CC1=CC(=C(N1C2=CC=C(C=C2)Cl)C)C(=O)CN3CCCCC3 [IU1-47]
In short: (§1)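 Viability was defined as treated-well nuclei divided by vehicle-well nuclei, with the median taken over replicate plates. Cells from lung cancer lines sat overnight at 37 °C in 1536-well plates, received five √10-spaced library-drug doses by pinning on vehicle-anchored plates, and grew 5 days without medium change before one-step fixation, permeabilisation and Hoechst staining, 4× imaging and MetaXpress nuclear counts. Only plates with control CV under 25% and at least one doubling were kept.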

FG-4592 = compound: Cc1nc(C(=O)NCC(=O)O)c(O)c2ccc(Oc3ccccc3)cc12 [FG-4592]
In short: as §1

IU1-47 + Alpelisib = compound: CC1=CC(=C(N1C2=CC=C(C=C2)Cl)C)C(=O)CN3CCCCC3 [IU1-47] + Cc1nc(NC(=O)N2CCC[C@H]2C(N)=O)sc1-c1ccnc(C(C)(C)C(F)(F)F)c1 [Alpelisib] (partner 2 µM)
In short: (§2)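 Lung cancer cell lines in 1536-well plates got either a single drug or a fixed anchor-drug dose together with five library-drug doses (not always all listed) in √10 steps, by pin tool, on the day after seeding. Nuclei were counted after 5 days, and relative viability is the treated-to-vehicle ratio of nuclei counts. Values are medians of duplicate plates.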

FG-4592 + Pemetrexed = compound: Cc1nc(C(=O)NCC(=O)O)c(O)c2ccc(Oc3ccccc3)cc12 [FG-4592] + Nc1nc2[nH]cc(CCc3ccc(C(=O)N[C@@H](CCC(=O)O)C(=O)O)cc3)c2c(=O)[nH]1 [Pemetrexed] (partner 0.2 µM)
In short: as §2

## COR-L23
IU1-47; 0.08 µM
  relative viability: 1.1
IU1-47; 0.253 µM
  relative viability: 1.08
IU1-47; 0.8 µM
  relative viability: 1.15
IU1-47; 2.53 µM
  relative viability: 0.938
IU1-47; 8 µM
  relative viability: 1.15
FG-4592; 0.08 µM
  relative viability: 0.97
FG-4592; 0.253 µM
  relative viability: 1.01
FG-4592; 0.8 µM
  relative viability: 1.11
FG-4592; 2.53 µM
  relative viability: 0.902
FG-4592; 8 µM
  relative viability: 1.03
IU1-47 + Alpelisib; first compound 0.08 µM
  relative viability: 0.686
IU1-47 + Alpelisib; first compound 0.253 µM
  relative viability: 0.947
IU1-47 + Alpelisib; first compound 0.8 µM
  relative viability: 0.869
IU1-47 + Alpelisib; first compound 2.53 µM
  relative viability: 0.951
IU1-47 + Alpelisib; first compound 8 µM
  relative viability: 0.975
FG-4592 + Pemetrexed; first compound 0.08 µM
  relative viability: 0.205
FG-4592 + Pemetrexed; first compound 0.253 µM
  relative viability: 0.204
FG-4592 + Pemetrexed; first compound 0.8 µM
  relative viability: 0.171
FG-4592 + Pemetrexed; first compound 2.53 µM
  relative viability: 0.194
FG-4592 + Pemetrexed; first compound 8 µM
  relative viability: 0.187

## COR-L 105
IU1-47; 0.08 µM
  relative viability: 0.95
IU1-47; 0.253 µM
  relative viability: 0.901
IU1-47; 0.8 µM
  relative viability: 1.02
IU1-47; 2.53 µM
  relative viability: 0.899
IU1-47; 8 µM
  relative viability: 0.91
FG-4592; 0.08 µM
  relative viability: 0.921
FG-4592; 0.253 µM
  relative viability: 0.938
FG-4592; 0.8 µM
  relative viability: 0.909
FG-4592; 2.53 µM
  relative viability: 0.821
FG-4592; 8 µM
  relative viability: 0.801
IU1-47 + Alpelisib; first compound 0.08 µM
  relative viability: 1.29
IU1-47 + Alpelisib; first compound 0.253 µM
  relative viability: 1.06
IU1-47 + Alpelisib; first compound 0.8 µM
  relative viability: 1.11
IU1-47 + Alpelisib; first compound 2.53 µM
  relative viability: 1.16
IU1-47 + Alpelisib; first compound 8 µM
  relative viability: 0.783
FG-4592 + Pemetrexed; first compound 0.08 µM
  relative viability: 1.03
FG-4592 + Pemetrexed; first compound 0.253 µM
  relative viability: 0.92
FG-4592 + Pemetrexed; first compound 0.8 µM
  relative viability: 1.13
FG-4592 + Pemetrexed; first compound 2.53 µM
  relative viability: 1.14
FG-4592 + Pemetrexed; first compound 8 µM
  relative viability: 0.877

## EKVX
IU1-47; 0.08 µM
  relative viability: 1.23
IU1-47; 0.253 µM
  relative viability: 1.12
IU1-47; 0.8 µM
  relative viability: 1.03
IU1-47; 2.53 µM
  relative viability: 0.859
IU1-47; 8 µM
  relative viability: 0.943
FG-4592; 0.08 µM
  relative viability: 1.03
FG-4592; 0.253 µM
  relative viability: 0.809
FG-4592; 0.8 µM
  relative viability: 0.932
FG-4592; 2.53 µM
  relative viability: 0.941
FG-4592; 8 µM
  relative viability: 0.992
IU1-47 + Alpelisib; first compound 0.08 µM
  relative viability: 1.21
IU1-47 + Alpelisib; first compound 0.253 µM
  relative viability: 1.08
IU1-47 + Alpelisib; first compound 0.8 µM
  relative viability: 1.04
IU1-47 + Alpelisib; first compound 2.53 µM
  relative viability: 1.12
IU1-47 + Alpelisib; first compound 8 µM
  relative viability: 0.741
FG-4592 + Pemetrexed; first compound 0.08 µM
  relative viability: 0.346
FG-4592 + Pemetrexed; first compound 0.253 µM
  relative viability: 0.36
FG-4592 + Pemetrexed; first compound 0.8 µM
  relative viability: 0.376
FG-4592 + Pemetrexed; first compound 2.53 µM
  relative viability: 0.377
FG-4592 + Pemetrexed; first compound 8 µM
  relative viability: 0.515

## EMC-BAC-2
IU1-47; 0.08 µM
  relative viability: 1.1
IU1-47; 0.253 µM
  relative viability: 1.09
IU1-47; 0.8 µM
  relative viability: 0.974
IU1-47; 2.53 µM
  relative viability: 0.977
IU1-47; 8 µM
  relative viability: 0.974
FG-4592; 0.08 µM
  relative viability: 0.947
FG-4592; 0.253 µM
  relative viability: 0.929
FG-4592; 0.8 µM
  relative viability: 0.674
FG-4592; 2.53 µM
  relative viability: 0.938
FG-4592; 8 µM
  relative viability: 0.779
IU1-47 + Alpelisib; first compound 0.08 µM
  relative viability: 0.768
IU1-47 + Alpelisib; first compound 0.253 µM
  relative viability: 0.824
IU1-47 + Alpelisib; first compound 0.8 µM
  relative viability: 0.793
IU1-47 + Alpelisib; first compound 2.53 µM
  relative viability: 0.749
IU1-47 + Alpelisib; first compound 8 µM
  relative viability: 0.711
FG-4592 + Pemetrexed; first compound 0.08 µM
  relative viability: 0.407
FG-4592 + Pemetrexed; first compound 0.253 µM
  relative viability: 0.407
FG-4592 + Pemetrexed; first compound 0.8 µM
  relative viability: 0.447
FG-4592 + Pemetrexed; first compound 2.53 µM
  relative viability: 0.434
FG-4592 + Pemetrexed; first compound 8 µM
  relative viability: 0.423

## EPLC-272H
IU1-47; 0.08 µM
  relative viability: 1.02
IU1-47; 0.253 µM
  relative viability: 1.05
IU1-47; 0.8 µM
  relative viability: 0.933
IU1-47; 8 µM
  relative viability: 0.806
FG-4592; 0.08 µM
  relative viability: 0.886
FG-4592; 0.253 µM
  relative viability: 0.777
FG-4592; 0.8 µM
  relative viability: 0.7
FG-4592; 2.53 µM
  relative viability: 0.901
FG-4592; 8 µM
  relative viability: 0.889
IU1-47 + Alpelisib; first compound 0.08 µM
  relative viability: 0.888
IU1-47 + Alpelisib; first compound 0.253 µM
  relative viability: 0.834
IU1-47 + Alpelisib; first compound 0.8 µM
  relative viability: 0.859
IU1-47 + Alpelisib; first compound 8 µM
  relative viability: 0.953
FG-4592 + Pemetrexed; first compound 0.08 µM
  relative viability: 0.321
FG-4592 + Pemetrexed; first compound 0.253 µM
  relative viability: 0.223
FG-4592 + Pemetrexed; first compound 0.8 µM
  relative viability: 0.319
FG-4592 + Pemetrexed; first compound 2.53 µM
  relative viability: 0.353
FG-4592 + Pemetrexed; first compound 8 µM
  relative viability: 0.377

## H3255
IU1-47; 0.08 µM
  relative viability: 1.11
IU1-47; 0.253 µM
  relative viability: 1.16
IU1-47; 0.8 µM
  relative viability: 1.02
IU1-47; 2.53 µM
  relative viability: 0.74
IU1-47; 8 µM
  relative viability: 0.975
FG-4592; 0.08 µM
  relative viability: 1.02
FG-4592; 0.253 µM
  relative viability: 0.87
FG-4592; 0.8 µM
  relative viability: 0.926
FG-4592; 2.53 µM
  relative viability: 0.9
FG-4592; 8 µM
  relative viability: 1.08
IU1-47 + Alpelisib; first compound 0.08 µM
  relative viability: 0.696
IU1-47 + Alpelisib; first compound 0.253 µM
  relative viability: 0.708
IU1-47 + Alpelisib; first compound 0.8 µM
  relative viability: 0.754
IU1-47 + Alpelisib; first compound 2.53 µM
  relative viability: 0.818
IU1-47 + Alpelisib; first compound 8 µM
  relative viability: 0.671
FG-4592 + Pemetrexed; first compound 0.08 µM
  relative viability: 0.586
FG-4592 + Pemetrexed; first compound 0.253 µM
  relative viability: 0.538
FG-4592 + Pemetrexed; first compound 0.8 µM
  relative viability: 0.567
FG-4592 + Pemetrexed; first compound 2.53 µM
  relative viability: 0.573
FG-4592 + Pemetrexed; first compound 8 µM
  relative viability: 0.56

## HARA
IU1-47; 0.08 µM
  relative viability: 0.964
IU1-47; 0.253 µM
  relative viability: 0.935
IU1-47; 0.8 µM
  relative viability: 1.09
IU1-47; 2.53 µM
  relative viability: 0.68
IU1-47; 8 µM
  relative viability: 0.817
FG-4592; 0.08 µM
  relative viability: 0.782
FG-4592; 0.253 µM
  relative viability: 0.752
FG-4592; 0.8 µM
  relative viability: 0.822
FG-4592; 2.53 µM
  relative viability: 1.01
FG-4592; 8 µM
  relative viability: 1.13
IU1-47 + Alpelisib; first compound 0.08 µM
  relative viability: 1.02
IU1-47 + Alpelisib; first compound 0.253 µM
  relative viability: 1.13
IU1-47 + Alpelisib; first compound 0.8 µM
  relative viability: 0.925
IU1-47 + Alpelisib; first compound 2.53 µM
  relative viability: 1.1
IU1-47 + Alpelisib; first compound 8 µM
  relative viability: 0.604
FG-4592 + Pemetrexed; first compound 2.53 µM
  relative viability: 0.251
FG-4592 + Pemetrexed; first compound 8 µM
  relative viability: 0.24

## HCC-15
IU1-47; 0.08 µM
  relative viability: 1.1
IU1-47; 0.253 µM
  relative viability: 1.08
IU1-47; 0.8 µM
  relative viability: 1.05
IU1-47; 2.53 µM
  relative viability: 0.678
IU1-47; 8 µM
  relative viability: 0.976
FG-4592; 0.08 µM
  relative viability: 0.978
FG-4592; 0.253 µM
  relative viability: 0.922
FG-4592; 0.8 µM
  relative viability: 0.954
FG-4592; 2.53 µM
  relative viability: 0.95
FG-4592; 8 µM
  relative viability: 1.05
IU1-47 + Alpelisib; first compound 0.08 µM
  relative viability: 0.99
IU1-47 + Alpelisib; first compound 0.253 µM
  relative viability: 0.926
IU1-47 + Alpelisib; first compound 0.8 µM
  relative viability: 0.978
IU1-47 + Alpelisib; first compound 2.53 µM
  relative viability: 0.825
IU1-47 + Alpelisib; first compound 8 µM
  relative viability: 0.82
FG-4592 + Pemetrexed; first compound 0.08 µM
  relative viability: 0.21
FG-4592 + Pemetrexed; first compound 0.253 µM
  relative viability: 0.235
FG-4592 + Pemetrexed; first compound 0.8 µM
  relative viability: 0.22
FG-4592 + Pemetrexed; first compound 2.53 µM
  relative viability: 0.221
FG-4592 + Pemetrexed; first compound 8 µM
  relative viability: 0.232
